Data published in patent US20220111081A1, “COMPOSITION FOR TARGETING MEDULLARY THYROID CANCER” (University-Industry Foundation, Yonsei University, priority 2019, published 2022).

Columns and labels:
parafollicular C-cells = parafollicular C-cells treated with acetate at each concentration (FIG. 5A)
Procedure: (§1) Thereafter, the parafollicular C-cells were treated with acetate at each concentration and cultured, and then using a bromodeoxyuridine (BrdU) cell proliferation assay kit (Millipore, Mass.), the degree of BrdU binding was analyzed according to the manufacturer's protocol.

OR51E2 [1] = molecular target: T1, OR51E2 (Homo sapiens, UniProt Q9H255)
T1 sequence (Q9H255 1-320): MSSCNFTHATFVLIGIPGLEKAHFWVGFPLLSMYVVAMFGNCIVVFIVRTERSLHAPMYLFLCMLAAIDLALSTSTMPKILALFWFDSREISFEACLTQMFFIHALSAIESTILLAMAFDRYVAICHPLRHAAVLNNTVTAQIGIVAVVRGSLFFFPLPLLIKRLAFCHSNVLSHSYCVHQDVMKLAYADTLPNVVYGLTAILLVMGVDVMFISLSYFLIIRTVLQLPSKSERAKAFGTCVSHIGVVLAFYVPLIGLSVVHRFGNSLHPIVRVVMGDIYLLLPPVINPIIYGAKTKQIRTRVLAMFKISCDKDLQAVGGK
Procedure: as §1

OR51E2 [2] = molecular target: T1, OR51E2; details: MZ-CRC-1 cell line, 100 μM acetate, stained after 1, 5 and 30 minutes (FIG. 10)
Procedure: To identify whether the binding of acetate and OR51E2 can be utilized in the diagnosis of thyroid cancer, the MZ-CRC-1 cell line (parafollicular C-cells) was treated with 100 μM of acetate, and the cells were stained after 1, 5 and 30 minutes to identify OR51E2.

p42/44 MAPK = system: p42/44 MAPK
Procedure: (§2) Since OR51E1 and OR51E2 were highly expressed in the medullary thyroid cancer cell lines, MZ-CRC1 and TT cell lines as parafollicular C-cell lines were treated with acetate, nonanoic acid, propionate and azelaic acid as olfactory receptor ligands by 100 μM each to identify their influences.

[3] = system: CREB (cAMP response element-binding protein); details: parafollicular C-cell line, acetate concentration series (FIG. 4B)
Procedure: as §2

intracellular cAMP = details: parafollicular C-cell line, acetate treatment (FIG. 4C)
Procedure: as §2

OR51E2 [4] = molecular target: OR51E2 (Mus musculus, UniProt Q8VBV9); details: wild-type mice, 30 minutes after injecting 100 μl of 99% acetate (FIG. 7B)
OR51E2 (Mus musculus, UniProt Q8VBV9), sequence (Q8VBV9 whole entry): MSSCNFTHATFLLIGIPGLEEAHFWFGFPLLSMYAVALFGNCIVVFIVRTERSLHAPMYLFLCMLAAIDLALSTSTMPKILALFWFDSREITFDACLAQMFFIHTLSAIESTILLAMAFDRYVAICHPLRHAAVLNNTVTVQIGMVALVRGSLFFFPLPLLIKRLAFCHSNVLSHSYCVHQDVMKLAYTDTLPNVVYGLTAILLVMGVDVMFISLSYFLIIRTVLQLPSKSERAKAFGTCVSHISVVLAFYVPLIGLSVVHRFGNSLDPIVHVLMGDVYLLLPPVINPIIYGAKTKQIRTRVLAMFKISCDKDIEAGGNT
Procedure: (§3) C57/BL6 mice in which a green fluorescent protein (GFP) was inserted into the OR51E2 gene loci were purchased (Jackson Laboratory, USA) and reared under sterile conditions. Through a week of acclimatization, the mice were each sacrificed 30 minutes after injecting 100 μl of 99% acetate thereto to separate the thyroid gland and serum. The thyroid gland was stained with calcitonin and a GFP antibody, respectively, and the calcitonin concentration was measured in the separated serum.

OR51E2 [5] = details: OR51E2 knockout mice, 30 minutes after injecting 100 μl of 99% acetate (FIG. 7B)
Procedure: as §3

OR51E2 [6] = molecular target: T1, OR51E2; experiment: acetate binding competition experiment (CPM); parameters: OR51E1 (olfactory receptor 51E1) and OR51E2 were highly expressed in MZ-CRC1 and TT cell lines as medullary thyroid cancer cell lines; endogenous in cells; host or cells: MZ-CRC-1 and TT medullary thyroid cancer cell lines; details: MZ-CRC-1 and TT cell lines
Procedure: MZ-CRC-1 and TT cell lines as medullary thyroid cancer cell lines were treated with 100 μM cold acetate (acetate labeled with no radioactive isotope), and then treated with ^11C-acetate at concentrations of 2, 5, 10, 20, 40 and 60 μCi to measure CPM. In addition, MZ-CRC-1 and TT cell lines were treated with ^11C-acetate (20 μCi), and then treated with cold acetate at concentrations of 0, 20, 40, 80, 150 and 300 μM to measure CPM.

MZ-CRC-1 cell line [7] = experiment: serum calcitonin in nude mice with MZ-CRC-1 tumor after ^11C-acetate; assay type: in vivo, mouse; details: nude mice (BALB/c) with tumor from MZ-CRC-1 cell line (FIG. 11B)
Procedure: (§4) Nude mice (BALB/c) were administered with the MZ-CRC-1 cell line (4×10^6 cells/mouse) to induce tumorigenesis, and administered with ^11C-acetate, followed by performing positron emission tomography (PET).

OR51E2 [8] = molecular target: T1, OR51E2; experiment: ^11C-acetate positron emission and CPM in thyroid cancer cell lines; assay type: cell-based; parameters: OR51E1 (olfactory receptor 51E1) and OR51E2 were highly expressed in MZ-CRC1 and TT cell lines as medullary thyroid cancer cell lines; endogenous in cells; host or cells: MZ-CRC-1 and TT medullary thyroid cancer cell lines
Procedure: Thyroid cancer cell lines having different origins were treated with ^11C-acetate labeled with a radioactive isotope (20 μCi), and the degree of positron emission was identified. A control group was treated with F-18-fluorodeoxyglucose as the most commonly used radiopharmaceutical.

MZ-CRC-1 cell line [9] = experiment: positron emission tomography (PET) of nude mice with MZ-CRC-1 tumor; assay type: in vivo, mouse; details: nude mice (BALB/c) with tumor from MZ-CRC-1 cell line (FIG. 11A)
Procedure: as §4

OR51E2 [10] = experiment: CPM after ^11C-acetate treatment of OR51E2 knockout mice; assay type: in vivo, mouse; details: OR51E2 knockout mice compared with wild-type mice (FIG. 8D)

| Structure (SMILES) | cell proliferation (BrdU binding level) (parafollicular C-cells) | release of calcitonin (OR51E2 [1]; expression of OR51E2 suppressed with siRNA, then acetate treatment (FIG. 5C)) | intracellular expression level of calcitonin (OR51E2 [1]; parafollicular C-cell line, acetate treatment (FIG. 5B)) | location of OR51E2 (staining) (OR51E2 [2]) | level of phosphorylation of p42/44 MAPK (p42/44 MAPK; MZ-CRC1 and TT cell lines, ligands 100 μM each (FIG. 4A)) | phosphorylation level of p42/44 MAPK versus concentration (p42/44 MAPK; parafollicular C-cell line, acetate concentration series (FIG. 4B)) | phosphorylation level of CREB versus concentration [3] | level of intracellular cAMP (intracellular cAMP) | level of calcitonin in the serum (OR51E2 [4]) | level of calcitonin in the serum (OR51E2 [5]) | CPM (OR51E2 [6]; first ^11C-acetate 20 μCi, then cold acetate 0, 20, 40, 80, 150 and 300 μM (FIG. 9C, 9D)) | calcitonin concentration in the serum (MZ-CRC-1 cell line [7]) | level of positron emission (OR51E2 [8]; medullary thyroid cancer cell line versus other thyroid cancer cell lines, 20 μCi (FIG. 8A)) | CPM (counter per minute) (OR51E2 [8]; medullary thyroid cancer cell line versus other thyroid cancer cell lines, 20 μCi (FIG. 8B)) | CPM (OR51E2 [8]; medullary thyroid cancer cell line with OR51E2 expression suppressed by siOR51E2 (FIG. 8C)) | PET tracer accumulation (MZ-CRC-1 cell line [9]) | CPM (OR51E2 [10]) | CPM (OR51E2 [6]; first 100 μM cold acetate, then ^11C-acetate 2, 5, 10, 20, 40 and 60 μCi (FIG. 9A, 9B)) |
| --- | --- | --- | --- | --- | --- | --- | --- | --- | --- | --- | --- | --- | --- | --- | --- | --- | --- | --- |
| CC(=O)O [acetate] | increased | not increased | increased | migrated into the cells | increased | increased in proportion to the acetate treatment concentration | increased in proportion to the acetate treatment concentration | increased | increased | maintained almost constant | decreased as the treatment concentration increased | – | – | – | – | – | – | – |
| C[11C](=O)O [^11C-acetate] | – | – | – | – | – | – | – | – | – | – | – | increased | high | highest | did not increase | accumulated in the tumor-producing sites | did not increase | increased as the treatment concentration increased |
